Test results published in US20130156762A1, “Mechanically-Activated Cation Channels” (The Scripps Research Institute, priority 2010, published 2013).

Tests used:
N2A cells = assay: Whole-cell mechanical stimulation (piezo-driven glass probe), MA currents in N2A cells; assay type: cell-based, mouse
Method: Cell culture and transient transfection. Neuro2A cells were grown in Eagle's Minimum Essential Medium containing 4.5 mg.ml^−1 glucose, 10% fetal bovine serum, 50 units.ml^−1 penicillin and 50 μg.ml^−1 streptomycin. C2C12 or Human Embryonic Kidney 293T (HEK293T) cells were grown in Dulbecco's Modified Eagle Medium containing 4.5 mg.ml^−1 glucose, 10% fetal bovine serum, 50 units.ml^−1 penicillin and 50 μg.ml^−1 streptomycin. Cells were plated onto 35 mm dishes or 12-mm round glass coverslips placed in 24-well plates and transfected using lipofectamine 2000 (Invitrogen) according to the manufacturer's instructions. For Piezo1 overexpression experiment, 500 to 1000 ng.ml^−1 of Piezo1-IRES-GFP or vector only were transfected, and cells were recorded 12-48 hours later. For Piezo2 overexpression experiments, 600 to 1000 ng.ml^−1 of mPiezo2 or vector were co-transfected with 300 ng.ml^−1 GFP to identify transfected cells and cells were recorded 12-48 hours later. […]
(§1) Patch-clamp experiments were performed in standard whole-cell or cell attached recordings using an Axopatch 200B amplifier (Axon Instruments). […] Voltages were not corrected for a liquid junction potential excepted for ion selectivity experiments were LJP were calculated using Clampex 10.1 software (Axon Instruments). […]

Piezo2 = target: T1, Piezo2 (Mus musculus, UniProt Q8CD54); assay: Block of Piezo2-induced MA currents in Piezo2-expressing cells (whole-cell); assay type: cell-based; conditions: for Percent block of Piezo2-induced MA currents: 30 μM
T1 construct: expressed in transfected cells; host or cells: N2A (with Piezo1 siRNA) or HEK293T; A13: N2A
Method: (§2) Patch-clamp experiments were performed in standard whole-cell or cell attached recordings using an Axopatch 200B amplifier (Axon Instruments). Patch pipettes had resistance of 2-3 MΩ when filled with an internal solution consisting of (in mM) 133 CsCl, 10 HEPES, 5 EGTA, 1 CaCl2, 1 MgCl2, 4 MgATP, and 0.4 Na2GTP (pH adjusted to 7.3 with CsOH). The extracellular solution consisted of (in mM) 127-130 NaCl, 3 KCl, 1 MgCl2, 10 HEPES, 2.5 CaCl2, 10 glucose (pH adjusted to 7.3 with NaOH). NMDG solution consisted of (in mM) 150 NMDG, 10 HEPES (pH 7.5). For ion selectivity experiments, internal solution consisted of (in mM) 150 CsCl, 10 Hepes (pH 7.3 with CsOH), monovalent external solutions consisted of (in mM) 150 NaCl or KCl, 10 HEPES (pH 7.3 with NaOH or KOH) and divalent external solutions consisted of (in mM) 100 CaCl2 or MgCl2, 10 HEPES (pH 7.3 with CsOH). For cell attached recordings, pipette were filled with a solution consisting of (in mM) 130 NaCl, 5 KCl, 10 HEPES, 1 CaCl2, 1 MgCl2, 10 TEA-C1 (pH 7.3 with NaOH) and external solution used to zero the membrane potential consisted of (in mM) 140 KCl, 10 HEPES, 1 MgCl2, 10 glucose (pH 7.3 with KOH). All experiments were done at room temperature. Currents were sampled at 20 kHz and filtered at 2 kHz. Voltages were not corrected for a liquid junction potential excepted for ion selectivity experiments were LJP were calculated using Clampex 10.1 software (Axon Instruments). Leak currents before mechanical stimulations were subtracted off-line from the current traces. 10 mM ruthenium red stock solution was prepared in DMSO; 100 mM gadolinium stock solution, in water.
(§3) For whole-cell recordings mechanical stimulation was achieved using a fire-polished glass pipette (tip diameter 3-4 μm) positioned at an angle of 80° to the cell being recorded. Downward movement of the probe toward the cell was driven by a Clampex controlled piezo-electric crystal microstage (E625 LVPZT Controller/Amplifier; Physik Instrumente). […] Inward MA currents were recorded at a holding potential of −80 mV. […]

Piezo1 = target: T2, Piezo1 (Mus musculus, UniProt E2JF22); assay: Block of Piezo1-induced MA currents in Piezo1-expressing cells (whole-cell); assay type: cell-based; conditions: for Percent block of Piezo1-induced MA current: 30 μM
T2 construct: expressed in transfected cells; HEK293T for immunocytochemistry
Method: as §2, §3

C2C12 cells = assay: Whole-cell mechanical stimulation, MA currents in C2C12 cells; assay type: cell-based, mouse; conditions: NMDG-chloride external solution, data not shown
Method: Cell culture and transient transfection. Neuro2A cells were grown in Eagle's Minimum Essential Medium containing 4.5 mg.ml^−1 glucose, 10% fetal bovine serum, 50 units.ml^−1 penicillin and 50 μg.ml^−1 streptomycin. C2C12 or Human Embryonic Kidney 293T (HEK293T) cells were grown in Dulbecco's Modified Eagle Medium containing 4.5 mg.ml^−1 glucose, 10% fetal bovine serum, 50 units.ml^−1 penicillin and 50 μg.ml^−1 streptomycin. Cells were plated onto 35 mm dishes or 12-mm round glass coverslips placed in 24-well plates and transfected using lipofectamine 2000 (Invitrogen) according to the manufacturer's instructions. For Piezo1 overexpression experiment, 500 to 1000 ng.ml^−1 of Piezo1-IRES-GFP or vector only were transfected, and cells were recorded 12-48 hours later. For Piezo2 overexpression experiments, 600 to 1000 ng.ml^−1 of mPiezo2 or vector were co-transfected with 300 ng.ml^−1 GFP to identify transfected cells and cells were recorded 12-48 hours later.
as §1

T2 sequence (E2JF22 whole entry): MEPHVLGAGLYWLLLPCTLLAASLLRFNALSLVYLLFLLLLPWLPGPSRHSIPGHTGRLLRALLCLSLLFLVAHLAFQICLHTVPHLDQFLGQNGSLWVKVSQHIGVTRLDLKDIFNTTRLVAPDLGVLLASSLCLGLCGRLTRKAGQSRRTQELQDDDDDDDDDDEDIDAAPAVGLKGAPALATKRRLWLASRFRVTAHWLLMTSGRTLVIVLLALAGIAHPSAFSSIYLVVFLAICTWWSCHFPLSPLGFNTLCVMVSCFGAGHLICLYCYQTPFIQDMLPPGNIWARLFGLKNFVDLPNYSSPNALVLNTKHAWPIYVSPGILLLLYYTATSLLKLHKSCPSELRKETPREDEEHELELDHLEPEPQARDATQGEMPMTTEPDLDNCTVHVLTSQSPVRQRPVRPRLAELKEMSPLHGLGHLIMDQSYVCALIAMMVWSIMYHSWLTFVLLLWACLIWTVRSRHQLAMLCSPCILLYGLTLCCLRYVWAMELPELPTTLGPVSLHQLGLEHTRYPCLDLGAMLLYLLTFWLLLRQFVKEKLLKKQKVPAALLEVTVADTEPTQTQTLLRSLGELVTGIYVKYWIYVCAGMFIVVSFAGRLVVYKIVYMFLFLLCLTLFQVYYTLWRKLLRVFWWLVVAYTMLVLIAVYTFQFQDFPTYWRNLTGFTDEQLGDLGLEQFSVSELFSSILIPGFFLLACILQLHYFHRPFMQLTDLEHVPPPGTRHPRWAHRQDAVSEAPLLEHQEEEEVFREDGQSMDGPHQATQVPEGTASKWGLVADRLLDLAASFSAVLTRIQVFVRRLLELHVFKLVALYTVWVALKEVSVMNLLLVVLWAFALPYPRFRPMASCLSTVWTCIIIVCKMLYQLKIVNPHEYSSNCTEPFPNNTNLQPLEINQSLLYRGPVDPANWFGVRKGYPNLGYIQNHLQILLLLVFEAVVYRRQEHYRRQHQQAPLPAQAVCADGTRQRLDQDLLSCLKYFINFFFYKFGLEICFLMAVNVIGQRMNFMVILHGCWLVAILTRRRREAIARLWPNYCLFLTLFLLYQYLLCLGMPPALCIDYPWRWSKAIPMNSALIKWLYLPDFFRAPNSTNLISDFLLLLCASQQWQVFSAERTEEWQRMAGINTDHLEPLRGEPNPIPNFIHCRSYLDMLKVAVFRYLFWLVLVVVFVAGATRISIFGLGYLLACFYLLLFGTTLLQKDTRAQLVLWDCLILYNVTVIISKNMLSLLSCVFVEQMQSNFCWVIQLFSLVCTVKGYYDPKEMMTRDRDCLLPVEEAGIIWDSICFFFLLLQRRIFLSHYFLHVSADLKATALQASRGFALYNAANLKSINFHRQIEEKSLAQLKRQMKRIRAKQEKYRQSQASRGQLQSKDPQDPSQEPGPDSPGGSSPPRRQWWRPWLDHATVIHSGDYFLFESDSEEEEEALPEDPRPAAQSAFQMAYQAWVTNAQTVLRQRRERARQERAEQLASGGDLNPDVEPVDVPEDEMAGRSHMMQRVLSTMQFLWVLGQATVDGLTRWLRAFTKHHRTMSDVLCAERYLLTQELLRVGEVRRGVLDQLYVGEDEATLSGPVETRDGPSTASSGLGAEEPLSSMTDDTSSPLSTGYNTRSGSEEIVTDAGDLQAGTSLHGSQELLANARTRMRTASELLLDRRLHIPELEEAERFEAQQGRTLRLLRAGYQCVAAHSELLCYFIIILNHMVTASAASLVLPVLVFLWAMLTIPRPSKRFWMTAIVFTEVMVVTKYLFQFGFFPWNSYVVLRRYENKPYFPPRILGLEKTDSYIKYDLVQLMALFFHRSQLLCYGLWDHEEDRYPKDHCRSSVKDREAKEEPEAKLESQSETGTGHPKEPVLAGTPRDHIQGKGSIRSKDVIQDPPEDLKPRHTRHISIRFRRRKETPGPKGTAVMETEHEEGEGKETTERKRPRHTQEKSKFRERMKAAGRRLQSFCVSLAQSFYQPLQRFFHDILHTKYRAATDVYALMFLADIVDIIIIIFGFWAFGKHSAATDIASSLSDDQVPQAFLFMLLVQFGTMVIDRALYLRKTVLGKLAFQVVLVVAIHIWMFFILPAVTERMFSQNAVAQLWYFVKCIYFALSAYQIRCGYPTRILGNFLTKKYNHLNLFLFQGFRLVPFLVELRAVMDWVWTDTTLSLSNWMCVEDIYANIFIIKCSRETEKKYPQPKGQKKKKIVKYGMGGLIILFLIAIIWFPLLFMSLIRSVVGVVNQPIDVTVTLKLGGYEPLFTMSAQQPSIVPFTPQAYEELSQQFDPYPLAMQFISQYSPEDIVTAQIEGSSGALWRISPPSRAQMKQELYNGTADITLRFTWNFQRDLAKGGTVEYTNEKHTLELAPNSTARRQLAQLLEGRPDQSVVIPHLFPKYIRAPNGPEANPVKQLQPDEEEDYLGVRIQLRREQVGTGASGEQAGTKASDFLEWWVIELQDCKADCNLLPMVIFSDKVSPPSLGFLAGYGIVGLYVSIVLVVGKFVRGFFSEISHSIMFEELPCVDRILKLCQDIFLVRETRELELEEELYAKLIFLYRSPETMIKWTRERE

**Q.** With `O=C(O)CN(CCOCCOCCN(CC(=O)O)CC(=O)O)CC(=O)O` [EGTA] as the molecule, how does the “Effect on MA currents” value (N2A cells; extracellular perfusion of divalent-free 5 mM EGTA solution for 30-60 min) read?
**A.** did not suppress

**Q.** With `CNC[C@H](O)[C@@H](O)[C@H](O)[C@H](O)CO` [NMDG] as the molecule, how does the “Effect on inward endogenous MA currents” value (N2A cells; NMDG-chloride external solution, data not shown) read?
**A.** suppressed

**Q.** And the “Effect on Piezo2-induced currents” value (Piezo2; perfusion with NMDG-Cl solution)?
**A.** suppressed

**Q.** And the “Effect on inward Piezo1-induced MA currents” value (Piezo1; NMDG substituted in extracellular bathing solution (150 mM NMDG-Cl))?
**A.** suppressed

**Q.** What about the “Effect on inward endogenous MA currents” value (C2C12 cells) of the same molecule?
**A.** suppressed

**Q.** Which “Percent block of Piezo2-induced MA currents” value (Piezo2) does the source give for `[Gd]` [gadolinium] here?
**A.** 85.0±3.7%

**Q.** And the “Percent block of Piezo1-induced MA current” value (Piezo1)?
**A.** 84.3±3.8%

**Q.** For `N.N.N.N.N.N.N.N.N.N.N.N.N.N.[Cl-].[Cl-].[Cl-].[Cl-].[Cl-].[Cl-].[O-2].[O-2].[Ru+3].[Ru+3].[Ru+4]` [ruthenium red], which “Percent block of Piezo2-induced MA currents” value (Piezo2) is on record?
**A.** 79.2±4.2%

**Q.** And the “Percent block of Piezo1-induced MA current” value (Piezo1)?
**A.** 74.6±2.5%
